The values below come from US9625458B2, “Biosensor” (priority 2002, dated 2017).

pKd: −log10 of the molar value.

The target in test [1] is E. coli histidine binding protein (HBP, SEQ ID NO:2), fluorophore-conjugated cysteine mutants (Escherichia coli, UniProt P0AEU0). As to conditions: read-out: range of Kd; range over conjugates, n=4. An excerpt: (§1) Molecular Cloning. […] Amplified products were cloned into one of the protein expression vectors pAED4 (Doering, “Functional and structural studies of a small f-actin binding domain” in Ph.D. thesis, Massachusetts Institute of Technology, 1992); pKK223-3 (Brosius & Holy, Proc. Natl. Acad. Sci. USA 81:6929-6933, 1984); or pET vectors (Studier et al., Meth. Enzymol. 185:60-89, 1990) (Novagen). N-terminal oligonucleotide primers were designed to clone only the processed periplasmic form, deleting the signal sequence. The C-terminal primer was designed to append the sequence Gly-Ser-Gly-(His)n or Gly-Ser-(His)n, where n=5, 6, or 10. Two tandem stop codons (TAATGA) follow the last His codon. […] Additionally the sequence of Fe(III) BP was mutated by substitution of Glu57 with Asp to raise the Kd to a concentration range conveniently measured using Fe(III) citrate.
Fluorophore conjugation to cysteine-substituted bPBPs. […] The efficiency of reporter group attachment was assessed by determination of unreacted thiol with Ellman's reagent (Ellman, Arch. Biochem. Biophys. 74:443-450, 1958) or by measuring the ratio of fluorophore to protein from absorbance spectra of the purified conjugate.
(§2) Fluorimetry. […] Fluorescence emission spectra were acquired with excitation and emission slit widths of 4 and 8 nm, respectively. […]

Test [2] concerns the target E. coli histidine binding protein (SEQ ID NO:2) variant V163C, fluorophore conjugate (Escherichia coli, UniProt P0AEU0, V185C). Kind of test: biochemical. An excerpt: (§3) Molecular Cloning. […] Amplified products were cloned into one of the protein expression vectors pAED4 (Doering, “Functional and structural studies of a small f-actin binding domain” in Ph.D. thesis, Massachusetts Institute of Technology, 1992); pKK223-3 (Brosius & Holy, Proc. Natl. Acad. Sci. USA 81:6929-6933, 1984); or pET vectors (Studier et al., Meth. Enzymol. 185:60-89, 1990) (Novagen). N-terminal oligonucleotide primers were designed to clone only the processed periplasmic form, deleting the signal sequence. The C-terminal primer was designed to append the sequence Gly-Ser-Gly-(His)n or Gly-Ser-(His)n, where n=5, 6, or 10. Two tandem stop codons (TAATGA) follow the last His codon. […] Single amino acid substitutions were generated by overlapping PCR mutagenesis (Ho et al., Gene 77:51-59, 1989). All clones and mutations were confirmed by nucleotide sequencing. In the case of arabinose BP, the single cysteine in the wild type sequence was replaced by alanine to eliminate the possibility of reporter group conjugation to this thiol (Miller et al., J. Biol. Chem. 254:7521-7528, 1979). Additionally the sequence of Fe(III) BP was mutated by substitution of Glu57 with Asp to raise the Kd to a concentration range conveniently measured using Fe(III) citrate.
(§4) Fluorophore conjugation to cysteine-substituted bPBPs. Thiol-reactive fluorophores obtained from Molecular Probes (Eugene, Oreg.) were 5-iodoacetamidofluorescein (fluorescein); N-(1-pyrene) iodoacetamide (pyrene); N,N′-dimethyl-N-(iodoacetyl)-N′-(7-nitrobenz-2-oxa-1,3-diazol-4-yl)ethylenediamide (NBD); N-((2-(iodoacetoxy)ethyl)-N-methyl)amino-7-nitrobenz-2-oxa-1,3-diazole (NBDE); and 6-acryloyl-2-dimethylaminonaphthalene (acrylodan). The styryl and naphthyl dyes JPW4039, JPW4042, and JPW4045 (FIG. 3) were synthesized at the University of Connecticut. All fluorophore conjugation steps were typically carried out at room temperature. To protein at a concentration of 100 μM was added tris-(2-carboxyethyl)phosphine HCl to a five-fold molar excess to reduce intermolecular disulfide bonds. A thiol-reactive fluorophore (20 to 25 mM in acetonitrile or dimethyl sulfoxide) was added in small aliquots to a five-fold molar excess over protein. Conjugation proceeded in the dark at room temperature for 4 hours, or overnight at 4° C. Separation of protein from unreacted fluorophore was achieved by exhaustive dialysis or by size-exclusion chromatography. The efficiency of reporter group attachment was assessed by determination of unreacted thiol with Ellman's reagent (Ellman, Arch. Biochem. Biophys. 74:443-450, 1958) or by measuring the ratio of fluorophore to protein from absorbance spectra of the purified conjugate.
(§5) Fluorimetry. All measurements were conducted with an SLM Aminco-Bowman series 2 fluorimeter, with sample stirring at 25° C. Fluorescence emission spectra were acquired with excitation and emission slit widths of 4 and 8 nm, respectively. Photomultiplier tube potential was maintained between 400 and 800 volts. Protein concentrations were in the range of 50 to 1000 nM. […]
(§6) Analyte affinity measurements. […] The emission wavelength monitored was that of maximum difference in intensity between the ligand-free and bound states. For each conjugate, fluorescence intensiometric observations were fit to a hyperbolic binding isotherm for a two-state model (Marvin et al., Proc. Natl. Acad. Sci. USA 94:4366-4371, 1997): […]

In test [3] the target is E. coli histidine binding protein (SEQ ID NO:2) variant E167C, fluorophore conjugate (Escherichia coli, UniProt P0AEU0, E189C). Put plainly: biochemical.
Text: as §3, §4, §5, §6

For test [4], the target named is T1, E. coli sulfate binding protein variant Q294C, fluorophore conjugate (Escherichia coli, UniProt P0AG78, Q313C).
T1 construct: Gly-Ser-Gly-(His)n or Gly-Ser-(His)n, n=5, 6 or 10 (C); initiator methionine (N); made in house; host or cells: E. coli strain BL21-DE3
Kind of test: Fluorimetric titration of fluorophore conjugates. Conditions: JPW4042 conjugate, ligand sulfate.
Text: as §3, §4
(§7) Sulfate BP buffer (20 mM Tris-HCl, pH 8.0) was passed through the chloride form of Dowex 1X2-100 strongly basic anion-exchange resin. Sulfate BP solutions were treated by dialysis against treated buffer; Dowex resin held in a separate dialysis tube was also included.
(§8) Fluorimetry. All measurements were conducted with an SLM Aminco-Bowman series 2 fluorimeter, with sample stirring at 25° C. Fluorescence emission spectra were acquired with excitation and emission slit widths of 4 and 8 nm, respectively. Photomultiplier tube potential was maintained between 400 and 800 volts. Protein concentrations were in the range of 50 to 1000 nM. Fluorophore-specific excitation was at the following approximate wavelengths: tryptophan, 290 nm; acrylodan, 390 nm; fluorescein, 485 nm; pyrene, 340 nm; NBD and NBDE, 490 nm; JPW4039, 485 nm; JPW4042, 470 nm; JPW4045, 470 nm.
(§9) Corrections were made for dilution of the protein and for background signal from buffer. Binding curves were fit to binding isotherms using equation 3 or 4, as appropriate.
(§10) Analyte affinity measurements. […] The emission wavelength monitored was that of maximum difference in intensity between the ligand-free and bound states.

Test [5] concerns the target T2, E. coli sulfate binding protein variant R134C, fluorophore conjugate (Escherichia coli, UniProt P0AG78, R153C).
T2 construct: Gly-Ser-Gly-(His)n or Gly-Ser-(His)n, n=5, 6 or 10 (C); initiator methionine (N); made in house; host or cells: E. coli strain BL21-DE3
Put plainly: Fluorimetric titration of fluorophore conjugates.
Text: as §3, §4, §7, §8, §9, §10

Test [6] concerns the target T3, E. coli sulfate binding protein variant W290C, fluorophore conjugate (Escherichia coli, UniProt P0AG78, W309C).
T3 construct: Gly-Ser-Gly-(His)n or Gly-Ser-(His)n, n=5, 6 or 10 (C); initiator methionine (N); made in house; host or cells: E. coli strain BL21-DE3
Put plainly: Fluorimetric titration of fluorophore conjugates. As to conditions: JPW4042 conjugate, ligand sulfate.
Text: as §3, §4, §7, §8, §9, §10

Test [7] addresses T4, E. coli sulfate binding protein variant L65C, fluorophore conjugate (Escherichia coli, UniProt P0AG78, L84C).
T4 construct: Gly-Ser-Gly-(His)n or Gly-Ser-(His)n, n=5, 6 or 10 (C); initiator methionine (N); made in house; host or cells: E. coli strain BL21-DE3
Put plainly: Fluorimetric titration of fluorophore conjugates. Conditions: Fluorescein conjugate, ligand sulfate.
Text: as §3, §4, §7, §8, §9, §10

Test [8] addresses T5, E. coli sulfate binding protein (SBP), fluorophore-conjugated cysteine mutants (Escherichia coli, UniProt P0AG78).
T5 construct: several single-Cys mutants with fluorophores
Kind of test: Ligand affinity of sulfate BP fluorescent conjugates (Kd range). Conditions: range over conjugates, n=8.
Text: as §1
Fluorophore conjugation to cysteine-substituted bPBPs. […] The efficiency of reporter group attachment was assessed by determination of unreacted thiol with Ellman's reagent (Ellman, Arch. Biochem. Biophys. 74:443-450, 1958) or by measuring the ratio of fluorophore to protein from absorbance spectra of the purified conjugate. […]
as §2

On to `N[C@@H](Cc1c[nH]cn1)C(=O)O` [histidine], for which the pKd (in general, the negative decadic logarithm of the Kd, by convention in mol/L) was 5.63 to 7.22 in test [1]; 6.40 in test [2] (Acrylodan conjugate, peristeric site); 6.60 in test [2] (JPW4042 conjugate, peristeric site); 5.63 in test [2] (NBD conjugate, peristeric site); 6.60 in test [2] (V163C-JPW4042); 7.22 in test [3].

Take `O=S(=O)(O)O` [sulfate]: the pKd in test [4] was 6.08; in test [5] (Acrylodan conjugate, R134C, ligand sulfate), 5.38; in test [5] (Fluorescein conjugate, R134C, ligand sulfate), 6.49; in test [5] (JPW4039 conjugate, R134C, ligand sulfate), 5.12; in test [5] (JPW4042 conjugate, R134C, ligand sulfate), 4.54; in test [5] (NBD conjugate, R134C, ligand sulfate) it was 4.65. Besides, the pKd is about 5.40 in test [5] (R134C-acrylodan), 6.47 in test [6], 5.96 in test [7] and 4.54 to 6.49 in test [8].
